Data taken from article PMC6273687, “Design, Synthesis and Biological Evaluation of Novel Primaquine-Cinnamic Acid Conjugates of the Amide and Acylsemicarbazide Type” (Molecules, 2016).

How the values were obtained:
colon carcinoma HCT 116 = experiment: Growth inhibition of tumor cell lines in vitro (reference drugs); format: cell-based; conditions: colon carcinoma HCT 116 (footnote b, printed in SW 620 column)
[1] = system: NCI-H460 lung carcinoma cell line; experiment: Growth inhibition of tumor cell lines in vitro (MTT / cell counting); format: cell-based, human; conditions: NCI-H460, 3 days
Experimental: (§1) The experiments were carried out on a murine lymphocytic leukemia cell line (L1210) and five human tumor cell lines: CEM, HeLa, NCI-H460, SW 620 and MCF-7. The cells were cultured as monolayers and maintained in Dulbecco′s modified Eagle medium (DMEM) supplemented with 10% fetal bovine serum (FBS), 2 mM L-glutamine, 100 U/mL penicillin and 100 μg/mL streptomycin in a humidified atmosphere with 5% CO2 at 37 °C.
(§2) The growth inhibition activity of the compounds was assessed as described previously. The cell lines were inoculated onto a series of standard 96-well microtiter plates on day 0, at 1.5 × 10^4 cells/mL (SW 620, H460) to 2.5 × 10^4 cells/mL (MCF-7, CEM and L1210), depending on the growth of the tumor cell line. Test agents were then added in ten-fold dilutions (10^−8 to 10^−4 M) and the cell cultures were then incubated for 3–4 days with 5% CO2 at 37 °C. Working dilutions of the compounds were freshly prepared on the day of testing.
(§3) After 3 (MCF-7, SW 620, NCI-H460) or 4 days (CEM, L1210), the cell growth rate was evaluated first light microscopically, then by viable cell counting and/or by performing the MTT assay, which detects dehydrogenase activity in live, not dead, cells. The absorbance (A) was measured on a microplate reader at 570 nm. The absorbance is directly proportional to the number of living, metabolically active cells. […] If however, all of the tested concentrations produce PGs exceeding the respective reference level of effect (e.g., PG value of 50), then the highest tested concentration is assigned as the default value, which is preceded by a “>” sign. Minimum two individual experiments were carried out and each test point was performed in quadruplicate.

[2] = system: L1210 murine lymphocytic leukemia cell line; experiment: as above; format: cell-based; conditions: Mus musculus, 96 h; L1210, 4 days
Experimental: as §1, §2, §3

[3] = system: HeLa cervical carcinoma cell line; experiment: as above; format: cell-based; conditions: Homo sapiens
Experimental: as §1, §2, §3

[4] = system: CEM acute lymphoblastic leukemia cell line; experiment: as above; format: cell-based; conditions: Homo sapiens, 96 h, 4 days
Experimental: as §1, §2, §3

[5] = Interaction with the stable radical DPPH (reducing ability)
Experimental: To a solution of DPPH in absolute ethanol the appropriate volume of the compounds (50 or 100 µM final concentrations) dissolved in DMSO was added. The absorbance was recorded at 517 nm after 20 and 60 min at room temperature. The experiments were repeated at least in triplicate and the standard deviation of absorbance was less than 10% of the mean. NDGA was used under the same experimental conditions as a reference compound.

[6] = Inhibition of linoleic acid peroxidation (AAPH-induced); conditions: 5 × 10^−5 M
Experimental: For initiating the lipid peroxidation free radical AAPH was used. Final solution in the UV cuvette consisted of 10 μL linoleate sodium solution (c = 16 mM), 0.93 mL phosphate buffer (c = 0.05 M), pH 7.4, thermostated at 37 °C. 50 μL AAPH solution (c = 40 mM) and 10 μL of the tested compounds were added. The experiment was performed at 37 °C under air. The oxidation of linoleic acid sodium salt was monitored at 234 nm. The assays were repeated at least in triplicate and the standard deviation of absorbance was less than 10% of the mean. Trolox was used under the same experimental conditions as a reference compound.

[7] = system: MCF-7 breast carcinoma cell line; experiment: Growth inhibition of tumor cell lines in vitro (MTT / cell counting); format: cell-based, human; conditions: for IC50: MCF-7, 3 days
Experimental: as §1, §2, §3

HEL cells = experiment: Cytotoxicity assay, alteration of HEL cell morphology (MCC); format: cell-based, human; conditions: 3 days
Experimental: Cytotoxicity measurements were based on the inhibition of HEL cell growth. Cells were seeded at 5 × 10^3 cells/well into 96-well microtiter plates. Then, medium containing different concentrations of the test compounds was added. After 3 days of incubation at 37 °C, the alteration of morphology of the cell cultures was recorded light microscopically. Cytotoxicity was expressed as MCC.

[8] = molecular target: T1, soybean lipoxygenase (LOX) (Glycine max, UniProt P08170); experiment: LOX inhibition study in vitro; format: biochemical; conditions: values in parentheses in Table 3
T1 construct: purchased Sigma-Aldrich
T1 sequence (P08170 1-839): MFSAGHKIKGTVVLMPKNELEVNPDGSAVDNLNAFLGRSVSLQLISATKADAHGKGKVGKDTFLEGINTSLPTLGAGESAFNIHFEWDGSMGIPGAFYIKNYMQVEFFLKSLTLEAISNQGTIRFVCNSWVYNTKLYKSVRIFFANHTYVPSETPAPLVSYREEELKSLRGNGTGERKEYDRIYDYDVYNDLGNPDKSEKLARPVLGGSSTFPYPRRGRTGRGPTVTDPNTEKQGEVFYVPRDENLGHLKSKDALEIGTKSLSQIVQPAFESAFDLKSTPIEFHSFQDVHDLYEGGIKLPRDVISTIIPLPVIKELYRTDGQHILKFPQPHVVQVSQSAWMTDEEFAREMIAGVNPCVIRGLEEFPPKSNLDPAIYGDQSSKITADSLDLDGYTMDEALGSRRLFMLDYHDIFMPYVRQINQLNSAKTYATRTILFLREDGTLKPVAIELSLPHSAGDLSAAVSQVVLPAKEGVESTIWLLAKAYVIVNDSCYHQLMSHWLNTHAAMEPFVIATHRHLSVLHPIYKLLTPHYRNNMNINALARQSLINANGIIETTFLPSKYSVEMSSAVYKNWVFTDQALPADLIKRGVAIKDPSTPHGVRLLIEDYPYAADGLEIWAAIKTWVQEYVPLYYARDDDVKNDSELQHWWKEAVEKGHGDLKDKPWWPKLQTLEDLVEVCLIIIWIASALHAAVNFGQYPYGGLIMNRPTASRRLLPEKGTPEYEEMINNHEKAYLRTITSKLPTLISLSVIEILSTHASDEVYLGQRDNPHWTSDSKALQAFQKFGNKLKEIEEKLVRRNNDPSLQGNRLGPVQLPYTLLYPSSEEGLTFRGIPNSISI
Experimental: LOX inhibitory assay in vitro was accomplished as described previously. The test compounds (stock solutions 10 mM in DMSO) were incubated at room temperature with sodium linoleate (c = 0.1 mM) and 0.2 mL of LOX enzyme solution (1/9 × 10^−4 m/V in saline). The conversion of sodium linoleate to 13-hydroperoxylinoleic acid was measured at 234 nm and compared with the reference inhibitor. Several concentrations were used for the IC50 determination.

[9] = system: SW 620 colon carcinoma cell line; experiment: Growth inhibition of tumor cell lines in vitro (MTT / cell counting); format: cell-based; conditions: Homo sapiens, 72 h; SW 620, 3 days
Experimental: as §1, §2, §3

human coronavirus (229E) = experiment: microbe, parasite or virus in culture; format: cell-based; conditions: read-out: EC50 (concentration required to reduce virus-induced cytopathogenicity by 50%), HEL cell cultures
lung adenocarcinoma A549 = experiment: Growth inhibition of tumor cell lines in vitro (reference drug); format: cell-based; conditions: Homo sapiens; lung adenocarcinoma A549 (footnote c, printed in NCI-H460 column)

SMILES | IC50 ([1]; Homo sapiens, 72 h) | IC50 [2] | IC50 [3] | IC50 [4] | DPPH-reducing ability RA (%) ([5]; 1 × 10^−4 M, 20 min) | DPPH-reducing ability RA (%) ([5]; 1 × 10^−4 M, 60 min) | DPPH-reducing ability RA (%) ([5]; 5 × 10^−5 M, 20 min) | DPPH-reducing ability RA (%) ([5]; 5 × 10^−5 M, 60 min) | LP Inhibition (%) [6] | IC50 ([7]; Homo sapiens, MCF7, 72 h) | IC50 [8] | IC50 [9] | EC50 (human coronavirus (229E)) | also measured
O=c1[nH]cc(F)c(=O)[nH]1 [5-FU, 5-fluorouracil, reference compound] | 3 ± 0.3 µM | 0.5 ± 0.2 µM | 0.54 ± 0.1 µM | 18 ± 5 µM | – | – | – | – | – | – | – | – | – | IC50 (colon carcinoma HCT 116; Homo sapiens): 4 ± 0.7 µM
COc1ccc(/C=C/C(=O)NNC(=O)NCCCC(C)Nc2cc(OC)cc3cccnc23)cc1 (stereo not drawn) [7c, (E)-1-(3-(4-Methoxyphenyl)acryloyl)-4-(4-(6-methoxyquinolin-8-ylamino)pentyl)semicarbazide] | > 100 µM | 1.7 ± 0.4 µM | 2.4 ± 0.2 µM | 1.3 ± 0.7 µM | 39% | 100% | 54% | 100% | 89% | 0.4 ± 0.2 µM | 50 µM | > 100 µM | – | MCC (minimum cytotoxic concentration) (HEL cells): around 20 μΜ
COc1cc(NC(C)CCCNC(=O)NNC(=O)/C=C/c2ccc(Cl)cc2)c2ncccc2c1 (stereo not drawn) [7g, (E)-1-(3-(4-Chlorophenyl)acryloyl)-4-(4-(6-methoxyquinolin-8-ylamino)pentyl)semicarbazide] | 20 ± 0.7 µM | 1.6 ± 0.7 µM | 2.7 ± 1.2 µM | 0.9 ± 0.7 µM | 100% | 100% | 66% | 100% | 89% | 0.2 ± 0.2 µM | 70 µM | 21 ± 4 µM | – | MCC (minimum cytotoxic concentration) (HEL cells): around 20 μΜ
COc1cc(NC(C)CCCNC(=O)NNC(=O)/C=C/c2cccc(C(F)(F)F)c2)c2ncccc2c1 (stereo not drawn) [7i, (E)-4-(4-(6-Methoxyquinolin-8-ylamino)pentyl)-1-(3-(3-(trifluoromethyl)phenyl)acryloyl)semicarbazide] | 18 ± 3 µM | 9.4 ± 4.8 µM | 10 ± 1 µM | 10 ± 1 µM | 96% | 73% | 71% | 100% | 84% | 2.3 ± 0.2 µM | 42.5 µM | 16 ± 5 µM | 7.9 µM | –
COc1cc(NC(C)CCCNC(=O)NNC(=O)/C=C/c2ccc(C(F)(F)F)cc2)c2ncccc2c1 (stereo not drawn) [7j, (E)-4-(4-(6-Methoxyquinolin-8-ylamino)pentyl)-1-(3-(4-(trifluoromethyl)phenyl)acryloyl)semicarbazide] | 34 ± 2 µM | 27 µM | 28 ± 12 µM | 9.4 ± 5.6 µM | 100% | 95% | 42% | 79% | 50% | 0.03 ± 0.02 µM | 35 µM | 40 ± 5 µM | 9.5 µM | fold higher activity than PQ ([7]; MCF-7): 900 fold; fold higher activity than the anticancer reference drugs ([7]; MCF-7): 100-to 500 fold
COc1cc(NC(C)CCCNC(=O)NNC(=O)/C=C/c2cc(C(F)(F)F)cc(C(F)(F)F)c2)c2ncccc2c1 (stereo not drawn) [7k, (E)-1-(3-(3,5-Bis(trifluoromethyl)phenyl)acryloyl)-4-(4-(6-methoxyquinolin-8-ylamino)pentyl)semicarbazide] | 48 ± 2 µM | 30 ± 17 µM | 30 ± 23 µM | 17 ± 5 µM | 98% | 97% | 72% | 100% | 55% | 3.2 ± 0.8 µM | 67.5 µM | 32 ± 4 µM | 8.4 µM | –
N.N.[Cl][Pt][Cl] [CIS, cisplatin, reference compound] | – | – | – | – | – | – | – | – | – | – | – | – | – | IC50 (colon carcinoma HCT 116): 7 ± 2 µM; IC50 [1]: 1 ± 0.1 µM; IC50 [7]: 10 ± 1 µM
COc1cc(NC(C)CCCN)c2ncccc2c1 (stereo not drawn) [PQ, primaquine] | 30 ± 7 µM | – | – | – | – | – | – | – | – | 28 ± 10 µM | – | – | – | IC50 (colon carcinoma HCT 116; Homo sapiens): 20 ± 6 µM
CNC(=O)c1cc(Oc2ccc(NC(=O)Nc3ccc(Cl)c(C(F)(F)F)c3)cc2)ccn1 [SOR, sorafenib, reference compound] | – | 4.2 ± 2.4 µM | 7.1 ± 2.6 µM | 3.2 ± 1.7 µM | – | – | – | – | – | 3.9 ± 1.6 µM | – | 7.1 ± 1.9 µM | – | IC50 (lung adenocarcinoma A549): 6.1 ± 0.6 µM
